In ChEMBL document CHEMBL1156829 (Proc Natl Acad Sci U S A, 2008):

What was measured:
[1] = NOVARTIS: Cytotoxicity against human hepatocellular carcinoma cell line (Huh7); format: toxicity, cell-based, Huh-7; details: Huh7 cells (hepatocellular carcinoma cell line)
[2] = test system: Plasmodium falciparum; experiment: NOVARTIS: Inhibition of Plasmodium falciparum W2 (drug-resistant) proliferation in erythrocyte-based infection assay; format: functional, organism-based; details: Plasmodium falciparum, W2; read-out: EC50
[3] = test system: Plasmodium falciparum; experiment: NOVARTIS: Inhibition of Plasmodium falciparum 3D7 (drug-susceptible) proliferation in erythrocyte-based infection assay; format: functional, organism-based; details: Plasmodium falciparum, 3D7

SMILES	CC50 [1]	EC50 [2]	EC50 [3]
Oc1ccc(-c2ccnc3cc(Cl)ccc23)cc1CNCC1(O)CCCCC1	> 13.7 µM	< 23.8 nM	1020 nM
CCOc1ccc2c(c1)sc(=NC(=O)Nc1ccc(OC)cc1)n2C	17.8 µM	997 nM	> 8300 nM
CN(C)CCn1c(=N)n(CC(O)c2ccc(Cl)c(Cl)c2)c2ccccc21 (stereo not given)	> 10 µM	457 nM	256 nM
c1ccc(-c2nc(NCCCn3ccnc3)cc(-c3ccncc3)n2)cc1	> 10 µM	458 nM	238 nM
COc1ccc(OC)c(-c2ccc(O)c(CNC3CCCCCC3)c2)c1	> 10 µM	97.5 nM	364 nM
CN(C)CCCN(Cc1cc2cc3c(cc2[nH]c1=O)OCO3)C(=S)Nc1cccc(Cl)c1	> 100 µM	918 nM	978 nM
O=C(NNC(=S)NCc1ccco1)C(F)(F)F	> 100 µM	3170 nM	> 12500 nM
O=C1C(=Cc2cc([N+](=O)[O-])cc(Br)c2O)C(=O)c2ccccc21	> 10 µM	> 877 nM	> 1250 nM
O=C(c1cnsn1)N1CCCC(COc2cccc(CN3CCC(Cc4ccccc4)CC3)c2)C1 (stereo not given)	> 100 µM	> 12500 nM	> 3670 nM
COc1cccc(OCCN2CCN(c3ncnc4c3cnn4-c3ccccc3)CC2)c1	> 75.7 µM	4050 nM	6250 nM
CC(C=NNC(N)=S)=NNC(N)=S	> 100 µM	7.23 nM	8.94 nM
Cc1cc(NS(=O)(=O)c2ccc(N=Cc3ccc(C#N)cc3)cc2)no1	> 10 µM	> 582 nM	> 1640 nM
O=C(Nc1ccc(Br)cc1C(=O)c1ccccc1)c1cc2nc(-c3cccs3)cc(C(F)(F)F)n2n1	> 100 µM	1760 nM	> 12500 nM
Clc1ccc(-n2cc(-c3ccccc3)c3c(N4CCC(Cc5ccccc5)CC4)ncnc32)cc1	> 100 µM	> 3990 nM	> 10000 nM
Cc1ccn2c(NC(C)(C)CC(C)(C)C)c(-c3ccccc3OC(=O)c3ccco3)nc2c1	> 10 µM	34.1 nM	828 nM
Cc1ccn2c(NC(C)(C)CC(C)(C)C)c(-c3ccccc3OC(=O)C3C[C@H]3c3ccccc3)nc2c1 (stereo not given in full)	> 10 µM	55.3 nM	727 nM
CCOC(=O)c1cnc2c(C)cc(C)cc2c1Nc1ccc(OC)c(OC)c1	> 100 µM	583 nM	1780 nM
CC(=O)N1c2ccccc2NC2=C(C(=O)CCC2)C1c1ccc([N+](=O)[O-])cc1 (stereo not given)	> 10 µM	26.7 nM	> 1250 nM
Cc1ccc2ccc3ccc(C)nc3c2n1 [NEOCUPROINE]	> 100 µM	24.3 nM	97.1 nM
COc1ccc(-c2cc(C(F)(F)F)n3ncc(C(=O)Nc4cccc(Cl)c4Cl)c3n2)cc1OC	> 100 µM	275 nM	2610 nM
CC[n+]1c(/C=C/C=C2\N(C)c3ccccc3C2(C)C)n(-c2ccccc2)c2ccc(Cl)cc21	> 10 µM	> 1220 nM	> 1500 nM
Cc1ccc(-n2c(SCc3cccc4ccccc34)nc3sc4c(c3c2=O)CCN(C)C4)cc1	> 100 µM	3300 nM	> 6520 nM
N#Cc1c2c(c(N3CCN(CCO)CC3)n3c1nc1ccccc13)CCC2	> 100 µM	177 nM	207 nM
O=[N+]([O-])c1ccc(Nc2nc(NN=Cc3ccccc3I)nc(Nc3ccccc3)n2)cc1	32.8 µM	2820 nM	846 nM

SMILES	CC50 [1]	EC50 [2]	EC50 [3]
CCCCOc1ccc(C(=O)Nc2cc(C)on2)cc1	> 100 µM	510 nM	3160 nM
O=C(Nc1ccccc1O)c1ccc(C(=O)N(C2CCCCC2)C2CCCCC2)cc1	> 100 µM	> 2450 nM	1470 nM
NCCCCCCNc1ccnc2cc(Cl)ccc12	> 10 µM	132 nM	288 nM
CCn1c2ccccc2[n+]2c(C)cc(C)nc12	> 100 µM	199 nM	266 nM
COc1ccc(C2CC3=NC(C)=C(C(=O)OC(C)C)C(c4ccccc4OC)C3=C(O)C2)cc1OC (stereo not given)	> 100 µM	39.8 nM	91.9 nM
OP1(O)=NP(O)(O)=NP(O)(O)=NP(O)(O)=N1	> 10 µM	> 1250 nM	811 nM
O=S(=O)(c1ccc(Br)s1)N1CCN(c2ccccc2)CC1	> 10 µM	400 nM	411 nM
C=CC1CN2CCC1CC2C(O)c1ccnc2ccc(OC)cc12 (stereo not given)	82.5 µM	54.2 nM	11.8 nM
O=C(Nc1ccc(C(=O)Nc2cccc(C3=NCCN3)c2)cc1)c1ccc(C2=NCCN2)cc1	> 100 µM	128 nM	193 nM
O=C(Nc1ccc(Cl)cc1Cl)c1ccc(-c2nc(-c3ccccc3Cl)cs2)cc1	> 7.93 µM	106 nM	150 nM
Oc1ccc(-c2ccccc2)cc1CNC1CCCCC1	> 10 µM	< 23.5 nM	982 nM
CN(CCCNc1ccnc2cc(Cl)ccc12)C(=O)c1cccc(F)c1	> 11.5 µM	490 nM	739 nM
O=C(Cn1cc([N+](=O)[O-])nc1[N+](=O)[O-])N1CCN(c2ccc(F)cc2)CC1	33.6 µM	234 nM	1070 nM
CN(C)Cc1c(O)ccc2oc(Cc3ccccc3)cc12	20.1 µM	59 nM	219 nM
O=C(c1ccc([N+](=O)[O-])cc1)c1ccc(N2CCOCC2)c([N+](=O)[O-])c1	> 100 µM	2720 nM	4200 nM
CC(NCCCN(C)C)c1cc(C(C)(C)C)cc2c1CCC2(C)C (stereo not given)	6.22 µM	179 nM	620 nM
CC(C)N(C)Cc1cc(-c2nc3ccccc3s2)ccc1O	> 100 µM	509 nM	7870 nM
CN(CCCNc1ccnc2cc(Cl)ccc12)C(=O)c1ccc(Cl)c([N+](=O)[O-])c1	> 7.92 µM	226 nM	137 nM
COc1ccc(OC)c(-c2ccc(O)c(CN3CCCC(C)C3)c2)c1 (stereo not given)	61 µM	94.5 nM	131 nM
COc1ccc(CC(=O)N(CCCC(C)Nc2cc(OC)cc3cccnc23)Cc2ccc(OC)c(OC)c2)cc1 (stereo not given)	> 10.8 µM	666 nM	1200 nM
CN(C(=O)CCNC(=O)Cn1cnc2ccccc2c1=O)C1CCCCC1	> 10 µM	> 636 nM	> 1250 nM
O=C(Nc1cc(C(F)(F)F)ccc1N1CCOCC1)C(Cl)(Cl)Cl	74.8 µM	116 nM	376 nM
CCOC(=O)c1cccc(OC(=O)c2ccccc2)c1	> 100 µM	2120 nM	> 7670 nM
O=C(c1ccccc1)c1cc(Cl)ccc1NCCBr	> 10 µM	> 955 nM	> 1250 nM

SMILES	CC50 [1]	EC50 [2]	EC50 [3]
COc1ccccc1-c1nnc(Nc2nc3cc4c(cc3s2)OCO4)o1	> 10 µM	> 1250 nM	> 1050 nM
CC(=O)Nc1ccc(NS(=O)(=O)c2cc([N+](=O)[O-])ccc2Cl)cc1	> 100 µM	475 nM	> 12500 nM
CCN(CC)CCCC(C)N=c1cc(C=Cc2ccccc2Cl)[nH]c2cc(Cl)ccc12 (stereo not given)	18.8 µM	25.7 nM	50.7 nM
Cc1ccccc1CN1CCN(C/C=C/c2ccccc2)CCC1=O	> 10 µM	26.7 nM	> 1250 nM
COc1ccc(C2CC(=O)C3=C(C2)NC(C)=C(C(=O)OC(C)C)C3c2ccccc2Br)cc1 (stereo not given)	> 100 µM	28.5 nM	62 nM
CC1CC(C)CN(CCCNc2ccc(C(=O)Nc3ccc(C(F)(F)F)cc3)cc2[N+](=O)[O-])C1 (stereo not given)	> 100 µM	401 nM	119 nM
CCC(Nc1ccc(OC)cc1)=C1C(=O)CC(C)(C)CC1=O	> 100 µM	3950 nM	> 4140 nM
O=C(CCc1ccccc1)c1ccccc1OCC(O)CN1CCCCC1 (stereo not given)	87.9 µM	144 nM	881 nM
Nc1nnc(CCSc2ccc(Cl)cc2)s1	> 3.71 µM	> 1250 nM	175 nM
CC1=C(C(=O)OC(C)C)C(c2ccc([N+](=O)[O-])cc2)C2=C(CC(c3ccc(Cl)cc3)CC2=O)N1 (stereo not given)	> 100 µM	56.3 nM	1190 nM
CCCCCCCCNC(=O)C1CC1c1ccccc1 (stereo not given)	> 100 µM	3490 nM	> 10500 nM
CC(C)Cc1ccc(C=CC(=O)NC2CC2)cc1	> 100 µM	1470 nM	1150 nM
O=C(CN(CCN1CCOCC1)S(=O)(=O)c1ccccn1)N1CCN(C(c2ccccc2)c2ccccc2)CC1	> 28.8 µM	4440 nM	> 12500 nM
O=C(CCl)Nc1ccc2c(c1)OCO2	20.3 µM	831 nM	1900 nM
Nc1ccc(-c2nc3cc(Oc4ccc(Oc5ccc6[nH]c(-c7ccc(N)cc7)nc6c5)cc4)ccc3[nH]2)cc1	15 µM	246 nM	288 nM
Cc1ccc(NC(=O)c2ccc(NCCCN3CCC(C)CC3)c([N+](=O)[O-])c2)cc1F	> 100 µM	330 nM	191 nM
O=C(CS(=O)(=O)c1ccc(C(F)(F)F)cn1)NNS(=O)(=O)c1ccc(Cl)cc1	> 10 µM	26.7 nM	> 1340 nM
Cc1ccc(N2CCN(CCNCc3ccc(F)cc3)[C@@H](Cc3ccc(O)cc3)C2)cc1	> 10 µM	240 nM	443 nM
O=C(NN=CC1CC=CCC1)c1ccc([N+](=O)[O-])cc1Cl (stereo not given)	> 10 µM	> 549 nM	> 1250 nM
CC1CCCCN1CCCNc1ncc(C(=O)NCc2ccccc2)c(NCC2CCCCC2)n1 (stereo not given)	> 10 µM	> 759 nM	582 nM
CC(=NNC(=O)c1ccc(C)cc1)c1ccccn1	> 100 µM	209 nM	350 nM
O=C(CSc1nc2ccccc2c(=O)n1-c1ccc(C(=O)N2CCOCC2)cc1)c1ccccc1	> 10 µM	> 1250 nM	> 772 nM
